According to PubChem BioAssay AID1963827 (Molecular Pharmacology Branch, DTP, NCI, 2024):

System: 994946-033-R-J1-PDC complex spheroid viability
Assay: Anticancer human tumor 994946-033-R-J1-PDC patient-derived melanoma cell line growth inhibition [POLQ]
Conditions: for IC50: curve of first compound; for viability, T/C: stronger effect = lower value
Method in brief: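 PDC + HUVEC + MSC complex spheroids; POLQ inhibitors ± partner drugs; top conc. at/near clinical Cmax, else 10 microM (SN-38 1 microM), half-log dilutions; 37 degrees C, 5% CO2.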

[1] = second compound 0.0316 µM, first compound 0.0316 µM
[2] = second compound 0.0316 µM, first compound 0.1 µM
[3] = second compound 0.0316 µM, first compound 0.316 µM
[4] = second compound 0.0316 µM, first compound 1 µM
[5] = second compound 0.0316 µM, first compound 3.16 µM
[6] = second compound 0.0316 µM, first compound 10 µM
[7] = second compound 0.1 µM, first compound 0.0316 µM
[8] = second compound 0.1 µM, first compound 0.1 µM
[9] = second compound 0.1 µM, first compound 0.316 µM
[10] = second compound 0.1 µM, first compound 1 µM
[11] = second compound 0.1 µM, first compound 3.16 µM
[12] = second compound 0.1 µM, first compound 10 µM
[13] = second compound 0.316 µM, first compound 0.0316 µM
[14] = second compound 0.316 µM, first compound 0.1 µM
[15] = second compound 0.316 µM, first compound 0.316 µM
[16] = second compound 0.316 µM, first compound 1 µM
[17] = second compound 0.316 µM, first compound 3.16 µM
[18] = second compound 0.316 µM, first compound 10 µM
[19] = second compound 1 µM, first compound 0.0316 µM
[20] = second compound 1 µM, first compound 0.1 µM
[21] = second compound 1 µM, first compound 0.316 µM
[22] = second compound 1 µM, first compound 1 µM
[23] = second compound 1 µM, first compound 3.16 µM
[24] = second compound 1 µM, first compound 10 µM
[25] = second compound 3.16 µM, first compound 0.0316 µM
[26] = second compound 3.16 µM, first compound 0.1 µM
[27] = second compound 3.16 µM, first compound 0.316 µM
[28] = second compound 3.16 µM, first compound 1 µM
[29] = second compound 3.16 µM, first compound 3.16 µM
[30] = second compound 3.16 µM, first compound 10 µM
[31] = second compound 10 µM, first compound 0.0316 µM
[32] = second compound 10 µM, first compound 0.1 µM
[33] = second compound 10 µM, first compound 0.316 µM
[34] = second compound 10 µM, first compound 1 µM
[35] = second compound 10 µM, first compound 3.16 µM
[36] = second compound 10 µM, first compound 10 µM
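Note: spheroids exposed to drugs for 7 days.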
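Throughout, for viability, T/C: 100% = DMSO vehicle treated spheroids.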

## COc1cccc2c1C(=O)c1c(O)c3c(c(O)c1C2=O)CC(O)(C(=O)CO)CC3OC1CC(N)C(O)C(C)O1 (centres undefined) + COC1C(OC(N)=O)C(O)C(Oc2ccc3c(O)c(NC(=O)c4ccc(O)c(CC=C(C)C)c4)c(=O)oc3c2C)OC1(C)C
Second compound 0.0316 µM
  IC50: < 0.0316 µM
Second compound 0.1 µM
  IC50: < 0.0316 µM
Second compound 0.316 µM
  IC50: < 0.0316 µM
Second compound 1 µM
  IC50: < 0.0316 µM
Second compound 3.16 µM
  IC50: < 0.0316 µM
Second compound 10 µM
  IC50: < 0.0316 µM
[1]
  viability, T/C: 30%
[2]
  viability, T/C: 9.63%
[3]
  viability, T/C: 3%
[4]
  viability, T/C: 2.19%
[5]
  viability, T/C: 0.88%
[6]
  viability, T/C: 1.18%
[7]
  viability, T/C: 38.2%
[8]
  viability, T/C: 11.2%
[9]
  viability, T/C: 1.88%
[10]
  viability, T/C: 1.88%
[11]
  viability, T/C: 1.36%
[12]
  viability, T/C: 0.62%
[13]
  viability, T/C: 29.7%
[14]
  viability, T/C: 8.65%
[15]
  viability, T/C: 5.33%
[16]
  viability, T/C: 1.37%
[17]
  viability, T/C: 0.61%
[18]
  viability, T/C: 1.78%
[19]
  viability, T/C: 38.5%
[20]
  viability, T/C: 21.4%
[21]
  viability, T/C: 2.96%
[22]
  viability, T/C: 0.39%
[23]
  viability, T/C: 0.88%
[24]
  viability, T/C: 0.7%
[25]
  viability, T/C: 29.7%
[26]
  viability, T/C: 7.94%
[27]
  viability, T/C: 3.1%
[28]
  viability, T/C: 0.41%
[29]
  viability, T/C: 0.77%
[30]
  viability, T/C: 0.92%
[31]
  viability, T/C: 29.2%
[32]
  viability, T/C: 9.79%
[33]
  viability, T/C: 2.2%
[34]
  viability, T/C: 0.59%
[35]
  viability, T/C: 1.28%
[36]
  viability, T/C: 0.88%

## CCCS(=O)(=O)Nc1ccc(F)c(C(=O)c2c[nH]c3ncc(-c4ccc(Cl)cc4)cc23)c1F + COC1C(OC(N)=O)C(O)C(Oc2ccc3c(O)c(NC(=O)c4ccc(O)c(CC=C(C)C)c4)c(=O)oc3c2C)OC1(C)C
Second compound 0.0316 µM
  IC50: 6.68 µM
Second compound 0.1 µM
  IC50: 5.99 µM
Second compound 0.316 µM
  IC50: 5.14 µM
Second compound 1 µM
  IC50: 6.12 µM
Second compound 3.16 µM
  IC50: 4.85 µM
Second compound 10 µM
  IC50: 6.15 µM
[1]
  viability, T/C: 128%
[2]
  viability, T/C: 113%
[3]
  viability, T/C: 99.6%
[4]
  viability, T/C: 93.4%
[5]
  viability, T/C: 109%
[6]
  viability, T/C: 18.3%
[7]
  viability, T/C: 102%
[8]
  viability, T/C: 98.7%
[9]
  viability, T/C: 89.3%
[10]
  viability, T/C: 105%
[11]
  viability, T/C: 106%
[12]
  viability, T/C: 9.61%
[13]
  viability, T/C: 104%
[14]
  viability, T/C: 101%
[15]
  viability, T/C: 97.3%
[16]
  viability, T/C: 121%
[17]
  viability, T/C: 75.3%
[18]
  viability, T/C: 15.4%
[19]
  viability, T/C: 90.5%
[20]
  viability, T/C: 93.4%
[21]
  viability, T/C: 90.4%
[22]
  viability, T/C: 108%
[23]
  viability, T/C: 91.3%
[24]
  viability, T/C: 19.2%
[25]
  viability, T/C: 113%
[26]
  viability, T/C: 111%
[27]
  viability, T/C: 104%
[28]
  viability, T/C: 93.8%
[29]
  viability, T/C: 67.5%
[30]
  viability, T/C: 20.2%
[31]
  viability, T/C: 102%
[32]
  viability, T/C: 107%
[33]
  viability, T/C: 112%
[34]
  viability, T/C: 94.2%
[35]
  viability, T/C: 99.9%
[36]
  viability, T/C: 13.5%
